Patent US20260166182A1, “CYANINE-BASED FLUOROPHORES” (The General Hospital Corporation, priority 2022, published 2026)
“Also recorded” adds a separate entry of the source.

Tests used:
[1] = system: immune cells from bone marrow and tumor tissues; test: Flow cytometry analysis of fluorophore-targeted immune cells from bone marrow and tumor; assay type: in vivo, mouse; conditions: 48 h post-injection
Protocol: Flow cytometry analysis: Bone marrow tissue was mechanically dissociated and digested with collagenase D (175 unit/mL, Roche) and DNase I (100 unit/mL, Roche) followed by EDTA (2 mM, Invitrogen). Erythrocytes were removed using RBC Lysis Buffer (Invitrogen). Tumor tissue was mechanically dissociated and digested with collagenase I (175 unit/mL, Thermo-fisher), Collagenase IV (250 unit/mL, Thermo-fisher, 1700019), and DNase I (100 unit/mL) followed by EDTA ([…]). Immune cells were isolated from cell suspensions of the bone marrow or tumor tissue using Ficoll® Paque Plus (GE Healthcare). Isolated cells were stained with anti-mouse F4/80 (BM8, Biolegend, 123131), anti-mouse Ly-6G (1A8, Biolegend, 127639), anti-mouse Ly-6C(HK1.4, Biolegend, 128011), anti-mouse CD11c (N418, Biolegend, 117313), anti-mouse CD103 (2E7, Biolegend, 121425), anti-mouse I-A/I-E (M5/114.15.2 Biolegend, 107611), anti-mouse/human CD11b (M1/70, Biolegend, 101254) and anti-mouse CD45 antibodies (30-F11, Biolegend, 103105) conjugated to fluorophores. Isolated cells were stained with Live/dead®-Aqua (Life Technologies) to distinguish live cells. Stained cells were fixed using 1% paraformaldehyde prior to analysis. Data acquisition was performed on a Fortessa cytometer (BD) followed by analysis on FlowJo software (Tree Star).

[2] = system: lung carcinoma (LLC cell line); test: NIR-II fluorescence imaging of subcutaneous LLC tumor-bearing C57BL/6 mice; assay type: in vivo, mouse; conditions: for tumor targeting / tumor signal: intravenous, NIR-II imaging until 48 h post-injection
Source text: General NIR-II fluorescence imaging: A 640×512-pixel InGaAs camera (Ninox640, Raptor Photonics) and macro zoom lens (0-10×; Navitar Zoom 7000 with SWIR coating) along with 900, 1070, 1100, and 1200 nm long-pass (LP) filters from either Thorlab or Edmund optics were used to collect the NIR-II signal. InGaAs camera played a role as an open-air imaging system along with the support of the FLARE system. An 808 nm fiber-coupled diode laser ([…] at the sample) was used as an excitation source. Data acquisition was done using in-house developed software. […] Mice were imaged with intact skin using InGaAs camera. At least 3 mice were analyzed for each sample. Tumor-bearing mouse models: Animals were housed in an AAALAC-certified facility and were studied under the protocols approved by the MGH IACUC (2016N000136). Mice were maintained under anesthesia with isoflurane and oxygen during the experiment. To establish the various tumor-bearing mouse models including lung carcinoma, pancreatic ductal adenocarcinoma (PDAC), and triple negative breast adenocarcinoma, eight-week-old C57BL/6 mice (Taconic Farms, Germantown, NY) were subcutaneously injected with 2×10^5 LLC, Pan02, and E0771 cells suspended in DMEM/Matrigel (100 μL, 50 v/v %) in the flank region, respectively. Female C57BL/6 mice were used for the breast cancer (E0771) model, otherwise male mice were used. […] Statistical analysis: The fluorescence and background intensities of a region of interest over each tissue were quantified using customized imaging software and ImageJ v1.48 (National Institutes of Health, Bethesda, MD). The signal-to-background ratio (SBR) was calculated as SBR=fluorescence/background, where background was the fluorescence intensity of muscle. Data were reported as mean±s.e.m. with a minimum of three biological replicates. Student's t-test statistical analysis was performed to evaluate the significance of the experimental data. The differences among groups were determined using one-way ANOVA analysis to assess the statistical differences among more than two groups. […] The data was indicated with *p<0.05, ** p<0.01, *** p<0.001, and **** p<0.0001.

[3] = system: LLC tumor; test: Tumor histopathology with NIR fluorescence microscopy of resected LLC tumors; assay type: in vivo, mouse; conditions: histological NIR images
Protocol: Tumor histopathology evaluation: […] After rinsing with PBS, the fixed sections were counterstained with nuclear fast red, dehydrated by ethanol, transferred into xylene, and finally mounted according to the standard protocol. To determine the tissue distribution of the NIR fluorophore, the dissected tissues were embedded in Tissue-Tek optimum cutting temperature compound (Sakura Finetek, Torrance, CA) without a pre-fixation step. The tissue block was frozen at −80° C. Frozen sections were cut at a thickness of 10 or 50 μm by a cryostat (Leica, Germany). Then, the tissue sections were stained with hematoxylin and eosin (H&E). The BioTek Cytation 5 (Winooski, VT) was used for pathological fluorescence imaging and observation.

[4] = system: serum proteins, mostly albumin; conditions: cited from earlier work
[5] = system: serum proteins, mostly albumin; test: Serum protein binding kinetics (size exclusion column); assay type: in vitro ADME; conditions: until 24 h incubation
Protocol: FIG. 15 Reaction kinetics of SH1, ICG, and IR-780 to serum proteins, mostly albumin. 50 nmol of each dye was mixed with 1 ml of FBS/PBS (pH 7.4) 50/50 v/v %, incubated at 37° C., and analyzed using a BioResolve size exclusion column (200 Å, 2.5 μm, 7.8×300 mm). The binding percentage was calculated by dividing by absorbance of bound dye at 24 h assuming the dyes can bind in maximum capacity in the protein at 24 h.

[6] = Photostability under xenon lamp irradiation; assay type: physicochemical; conditions: ethanol, xenon lamp 150 W, end of 2 h
Protocol: Optical Study, Photostability, Physicochemical Properties, and DFT Calculation: 1 mM stock solution in DMSO of the synthesized fluorophores was prepared before starting any spectral measurement. Optical properties for the synthesized fluorophores were measured in four different solvents (EtOH, DMSO, HEPES, and PBS). Absorbance spectra were measured in a Varian Cary 50 absorbance spectrophotometer (190-1100 nm). Fluorescence emission and photostability were measured and emission spectra were recorded on a Shimadzu RF-5301PC spectrofluorometer. Physicochemical properties (Log D, molecular mass, TPSA, H bond D/A, polarizability, molecular volume, and rotatable bonds) were predicted by ChemAxon (JChem plugin). Theoretical calculations of frontier molecular orbitals (FMOs) for the optimized structures of selected fluorophores were calculated based on DFT calculations at the B3LYP/6-311G(d,p) level.
In consideration of theranostic (therapeutics and diagnostic) applications, NIR cyanine fluorophores are synthesized for fluorescence imaging, photodynamic therapy (PDT), photothermal therapy (PTT), optoacoustic imaging, and cancer immunotherapy. One of the approaches before using these fluorophores in those applications is to study their biodistribution and clearance pattern in vivo. […] The power density of 150 W is much higher than the required power for fluorescence imaging, considering that the time it takes for a fluorophore to clear from the background and accumulate in sufficient quantities in the targeted tissues is unknown. […] By considering this, an aliquot of the stock solution (1 mM in DMSO) was diluted in ethanol, and the fluorescence intensity was measured at the excitation wavelength same as their absorption maxima (nm). Photodegradation rates were measured every 20 min intervals for the selected fluorophores based on the % reduced fluorescence intensity starting from 100%. […] The data were collected in every 20 min intervals under continuous irradiation with a xenon lamp at 150 W for 2 h and presented based on the % reduced fluorescence intensity starting from 100%. […]

[7] = cited from earlier work

nonspecific background signal in biodistribution ([2]; 4 h post-injection) | clearance ([2]; mouse, in vivo) | photodegradation (% reduced fluorescence intensity) [6] | SMILES | positively stained cells across distinct immune cell populations ([1]; bone marrow) | positively stained cells across distinct immune cell populations ([1]; tumor) | circulation in the blood stream ([2]; 48 h post-injection) | tumor signal intensity after skin removal ([2]; 48 h post-injection) | tumor targeting / tumor signal [2] | fluorescence signal location in resected tumor [3] | time to bind half of the maximum [4] | reaction with serum proteins [5] | reference quantum yield ΦICG [7]
High nonspecific background signal | – | – | CCCN1/C(=C/C=C2\CCCC(/C=C/C3=[N+](CCC)c4ccccc4C3(C)C)=C2Cl)C(C)(C)c2ccccc21.[I-] [IR-780] | < 22% | < 7% | strong signals in the blood plasma; also recorded: circulating in the blood stream | significantly decreased after skin removal | accumulating in tumors at early time points around 4 h post-injection | only present in the peritumoral region | ~2 min | – | –
– | fast hepatobiliary clearance | 41% | CC1(C)C(/C=C/C=C/C=C/C=C2\N(CCCCS(=O)(=O)O)c3ccc4ccccc4c3C2(C)C)=[N+](CCCCS(=O)(=O)[O-])c2ccc3ccccc3c21 [ICG, indocyanine green, reference compound] | < 8% | < 14% | – | – | did not show good tumor targeting | barely present in the tumor | – | did not show any reactions with proteins until 24 h incubation | 0.043
